In brackets after ≈: the same amount, converted by molar mass.
Legend:
[1] = AUC (infinity) in beagle dog at 30 mg/kg, po; assay type: ADME, organism-based, Canis lupus familiaris; design: dose 30 mg/kg, route oral, time infinity; conditions: in vivo
[2] = Drug metabolism in mouse hepatocytes assessed as peak area for metabolite formed due to biotransformation (dealkylation; glucuronide; GSH) at 10 uM incubated for 2 hrs by LC-MS analysis; assay type: ADME, cell-based, Hepatocyte
[3] = Protein binding in mouse plasma; assay type: ADME, cell-free; conditions: read-out: PPB (converted)
[4] = Tmax in rat at 30 mg/kg, po; assay type: ADME, organism-based; conditions: in vivo
[5] = Cmax in CD1 mouse at 30 mg/kg, po; assay type: ADME, organism-based; design: dose 30 mg/kg, route oral; conditions: in vivo
[6] = Half life in human whole blood at 5 uM by LC-MS/MS analysis; assay type: ADME, tissue-based
[7] = Tmax in beagle dog at 30 mg/kg, po; assay type: ADME, organism-based, Canis lupus familiaris; conditions: in vivo
[8] = Drug metabolism in mouse hepatocytes assessed as peak area for metabolite formed due to biotransformation (dealkylation; GSH) at 10 uM incubated for 2 hrs by LC-MS analysis; assay type: ADME, cell-based, Hepatocyte
[9] = Toxicity in athymic nude-Foxn1nu mouse xenografted with human MIAPaCa2 cells assessed as induction of body weight loss at 10 to 100 mg/kg, po dosed daily via gavage for 16 days; assay type: organism-based, MIA PaCa-2; conditions: in vivo, 384 h
[10] = Drug metabolism in mouse hepatocytes assessed as peak area for metabolite formed due to biotransformation ( GSH) at 10 uM incubated for 2 hrs by LC-MS analysis; assay type: ADME, cell-based, Hepatocyte
[11] = Clearance in beagle dog at 3 mg/kg, iv; assay type: ADME, organism-based, Canis lupus familiaris; conditions: in vivo
[12] = in vivo; conditions: beagle, dog, po, 30 mg/kg
[13] = Half life in rat at 3 mg/kg, iv; assay type: ADME, organism-based; conditions: in vivo
[14] = Cmax in beagle dog at 30 mg/kg, po; assay type: ADME, organism-based, Canis lupus familiaris; design: dose 30 mg/kg, route oral; conditions: in vivo
[15] = Apparent permeability in pig LLC-PK1 cells; assay type: ADME, cell-based, Sus scrofa; conditions: read-out: permeability
[16] = Half life in beagle dog at 3 mg/kg, iv; assay type: ADME, organism-based, Canis lupus familiaris; conditions: in vivo
[17] = Drug metabolism in mouse hepatocytes assessed as peak area for metabolite formed due to biotransformation (dealkylation; glucuronide) at 10 uM incubated for 2 hrs by LC-MS analysis; assay type: ADME, cell-based, Hepatocyte
[18] = Clearance in CD1 mouse at 3 mg/kg, iv; assay type: ADME, organism-based; conditions: in vivo
[19] = Drug metabolism in mouse hepatocytes assessed as peak area for metabolite formed due to biotransformation (sulfate) at 10 uM incubated for 2 hrs by LC-MS analysis; assay type: ADME, cell-based, Hepatocyte
[20] = Solubility in FaSSIF at pH 6.5; assay type: physicochemical
[21] = in vivo; conditions: rat, po, 30 mg/kg
[22] = Half life in dog whole blood at 5 uM by LC-MS/MS analysis; assay type: ADME, tissue-based, Canis lupus familiaris
[23] = Tmax in CD1 mouse at 30 mg/kg, po; assay type: ADME, organism-based; conditions: in vivo
[24] = AUC (infinity) in rat at 30 mg/kg, po; assay type: ADME, organism-based; design: dose 30 mg/kg, time infinity, route oral; conditions: in vivo
[25] = Volume of distribution at steady state in beagle dog at 3 mg/kg, iv; assay type: ADME, organism-based, Canis lupus familiaris; conditions: in vivo, read-out: Vdss
[26] = AUC (infinity) in CD1 mouse at 30 mg/kg, po; assay type: ADME, organism-based; design: dose 30 mg/kg, time infinity, route oral; conditions: in vivo
[27] = Drug metabolism in mouse hepatocytes assessed as peak area for metabolite formed due to biotransformation (glucuronide; GSH) at 10 uM incubated for 2 hrs by LC-MS analysis; assay type: ADME, cell-based, Hepatocyte
[28] = Volume of distribution at steady state in CD1 mouse at 3 mg/kg, iv; assay type: ADME, organism-based; conditions: in vivo, read-out: Vdss
[29] = Half life in CD1 mouse at 3 mg/kg, iv; assay type: ADME, organism-based; conditions: in vivo
[30] = Protein binding in human plasma; assay type: ADME, cell-free; conditions: read-out: PPB (converted)
[31] = Half life in mouse whole blood at 5 uM by LC-MS/MS analysis; assay type: ADME, tissue-based
[32] = Cmax in rat at 30 mg/kg, po; assay type: ADME, organism-based; design: dose 30 mg/kg, route oral; conditions: in vivo
[33] = Volume of distribution at steady state in rat at 3 mg/kg, iv; assay type: ADME, organism-based; conditions: in vivo
[34] = Drug metabolism in mouse hepatocytes assessed as peak area for metabolite formed due to biotransformation (glucuronide) at 10 uM incubated for 2 hrs by LC-MS analysis; assay type: ADME, cell-based, Hepatocyte
[35] = system: MIA PaCa-2; assay: Antitumor activity against human MIAPaCa2 cells xenografted in athymic nude-Foxn1nu mouse assessed as maximally efficacious dose for induction of tumor regression at 10 to 100 mg/kg, po dosed daily via gavage for 16 days; assay type: functional

Compound: C=C(F)C(=O)N1CCN(c2nc(OC[C@@H]3CCCN3C)nc3c2CCN(c2cccc4cccc(Cl)c24)C3)C[C@@H]1CC#N [ADAGRASIB]
- AUC(0-inf) [1]: 4470 ng·h/mL
- Drug metabolism [2]: Metabolite_Notdetected
- fraction unbound [3]: 0.01
- Tmax [4]: 2.67 h
- Cmax [5]: 2410 ng/mL
- half-life at 5 µM [6]: > 50 h
- Tmax [7]: 4 h
- Drug metabolism [8]: Metabolite_Notdetected
- Activity [9]: Non-Toxic
- Drug metabolism [10]: Metabolite_Notdetected
- clearance [11]: 29.6 mL/min/kg
- bioavailability [12]: 25.9%
- t1/2 [13]: 2.57 h
- Cmax [14]: 252 ng/mL
- Papp [15]: 4.7 ×10⁻⁶ cm/s
- half-life [16]: 7.56 h
- Drug metabolism [17]: Metabolite_Notdetected
- clearance [18]: 19.9 mL/min/kg
- Drug metabolism [19]: Metabolite_Notdetected
- solubility [20]: 568 µg/mL (≈ 940 µM)
- bioavailability [21]: 29.7%
- half-life at 5 µM [22]: > 50 h
- Tmax [23]: 1 h
- AUC(0-inf) [24]: 2670 ng·h/mL
- Vd [25]: 17.4 L/kg
- AUC(0-inf) [26]: 15900 ng·h/mL
- Drug metabolism [27]: Metabolite_Notdetected
- Vd [28]: 2.02 L/kg
- half-life [29]: 1.51 h
- fraction unbound [30]: 0.017
- half-life at 5 µM [31]: > 50 h
- Cmax [32]: 209 ng/mL
- Vdss [33]: 20.7 L/kg
- Drug metabolism [34]: Metabolite_Notdetected
- Activity [35]: 30 to 100 mg/kg

Source: ChEMBL document CHEMBL4610106, “Identification of the Clinical Development Candidate MRTX849, a Covalent KRASG12C Inhibitor for the Treatment of Cancer” (J Med Chem, 2020)
